Like-named read-outs stand apart in the source and are kept apart here.

As a reminder, the inhibition is the relative decrease from the control value, in per cent.

What all share (test): SAMDI mass spectrometry HDAC inhibition assay
What all share (type): biochemical

The target in one test is HDAC8 (Homo sapiens (Human), UniProt Q9BY41). Particulars: for inhibition at 10 µM: given if the IC50 was above 10 μM. How it is done: (§1) There is precedence that fluorescently labeled substrates can perturb enzyme activity and the effect of inhibitors. […] Additionally, 3-hydroxypyridine-2-ones are highly colored solids and might lead to false positive signals. Mindful of these facts, a label-free SAMDI (self-assembled monolayers for MALDI) mass spectrometry assay was also used to assess HDAC inhibition.
(§2) The SAMDI technique, wherein self-assembled monolayers (SAM) of alkanethiolates on gold are analyzed by matrix assisted laser desorption/ionization (MALDI) mass spectrometry, has been widely used to characterize many biochemical activities, including the deacetylase enzyme family.

For a further test, the target named is HDAC1 (Homo sapiens (Human), UniProt Q13547). The following applies: for HDAC1 inhibition in words / HDAC1 inhibition, symbol: SAMDI; for inhibition at 10 µM: given if the IC50 was above 10 μM. On the procedure:
as §1, §2

The target of the next test is HDAC6 (Homo sapiens (Human), UniProt Q9UBN7). Particulars: for HDAC6 inhibition in words / HDAC6 inhibition, symbol / IC50: SAMDI; for IC50: read-out: HDAC6 IC50; for inhibition at 10 µM: read-out: HDAC6 % inhibition. How it is done: as §1
The SAMDI technique, wherein self-assembled monolayers (SAM) of alkanethiolates on gold are analyzed by matrix assisted laser desorption/ionization (MALDI) mass spectrometry, has been widely used to characterize many biochemical activities, including the deacetylase enzyme family. The SAMDI assay was used to measure the inhibition constant (K1) of fragments against HDAC1, HDAC6 and HDAC8 using a previously identified preferred HDAC substrate.

Setting [1] is: SAMDI, read-out: HDAC8 activity (IC50).

HDAC8, sequence (Q9BY41 whole entry): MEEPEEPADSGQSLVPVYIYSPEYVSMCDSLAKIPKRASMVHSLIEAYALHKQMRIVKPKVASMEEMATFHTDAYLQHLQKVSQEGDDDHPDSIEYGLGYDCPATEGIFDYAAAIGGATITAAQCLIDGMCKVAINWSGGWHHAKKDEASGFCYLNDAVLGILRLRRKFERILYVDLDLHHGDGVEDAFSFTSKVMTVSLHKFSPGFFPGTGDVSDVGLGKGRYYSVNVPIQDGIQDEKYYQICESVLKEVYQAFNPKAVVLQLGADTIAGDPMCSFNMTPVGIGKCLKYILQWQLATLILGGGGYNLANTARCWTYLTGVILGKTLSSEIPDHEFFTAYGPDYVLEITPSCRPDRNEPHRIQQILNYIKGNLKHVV
HDAC6, sequence (Q9UBN7 whole entry, the tested form may be a part): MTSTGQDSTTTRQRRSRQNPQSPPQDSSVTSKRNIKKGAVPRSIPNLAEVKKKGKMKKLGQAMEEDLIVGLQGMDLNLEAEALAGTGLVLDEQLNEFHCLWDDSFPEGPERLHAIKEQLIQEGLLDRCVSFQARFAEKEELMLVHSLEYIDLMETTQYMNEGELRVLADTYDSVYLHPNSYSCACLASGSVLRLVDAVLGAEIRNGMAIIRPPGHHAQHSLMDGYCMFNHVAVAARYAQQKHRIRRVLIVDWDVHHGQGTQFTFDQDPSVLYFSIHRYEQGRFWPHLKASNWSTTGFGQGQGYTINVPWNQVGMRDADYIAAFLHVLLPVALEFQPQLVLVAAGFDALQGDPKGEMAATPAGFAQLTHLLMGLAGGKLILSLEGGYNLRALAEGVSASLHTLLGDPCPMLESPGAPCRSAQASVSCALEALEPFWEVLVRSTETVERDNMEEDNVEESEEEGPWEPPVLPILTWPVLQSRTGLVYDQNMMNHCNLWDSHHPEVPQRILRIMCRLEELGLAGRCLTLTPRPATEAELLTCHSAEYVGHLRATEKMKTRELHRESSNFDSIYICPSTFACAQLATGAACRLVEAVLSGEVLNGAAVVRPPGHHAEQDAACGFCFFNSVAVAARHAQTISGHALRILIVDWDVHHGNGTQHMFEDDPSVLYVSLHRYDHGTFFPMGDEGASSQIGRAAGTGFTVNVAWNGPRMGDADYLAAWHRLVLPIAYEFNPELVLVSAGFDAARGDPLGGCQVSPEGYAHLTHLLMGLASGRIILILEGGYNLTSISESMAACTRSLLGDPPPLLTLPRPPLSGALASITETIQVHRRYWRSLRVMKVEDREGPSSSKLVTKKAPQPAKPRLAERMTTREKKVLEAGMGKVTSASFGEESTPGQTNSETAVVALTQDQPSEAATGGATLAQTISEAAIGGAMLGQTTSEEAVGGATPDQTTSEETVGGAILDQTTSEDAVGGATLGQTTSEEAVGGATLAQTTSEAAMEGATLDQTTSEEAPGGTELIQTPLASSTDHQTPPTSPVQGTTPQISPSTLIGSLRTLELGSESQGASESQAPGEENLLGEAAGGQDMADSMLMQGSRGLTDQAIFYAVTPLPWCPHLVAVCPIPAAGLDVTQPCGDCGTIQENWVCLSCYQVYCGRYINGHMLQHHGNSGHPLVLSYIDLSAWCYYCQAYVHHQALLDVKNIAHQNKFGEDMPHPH
HDAC1, sequence (Q13547 whole entry): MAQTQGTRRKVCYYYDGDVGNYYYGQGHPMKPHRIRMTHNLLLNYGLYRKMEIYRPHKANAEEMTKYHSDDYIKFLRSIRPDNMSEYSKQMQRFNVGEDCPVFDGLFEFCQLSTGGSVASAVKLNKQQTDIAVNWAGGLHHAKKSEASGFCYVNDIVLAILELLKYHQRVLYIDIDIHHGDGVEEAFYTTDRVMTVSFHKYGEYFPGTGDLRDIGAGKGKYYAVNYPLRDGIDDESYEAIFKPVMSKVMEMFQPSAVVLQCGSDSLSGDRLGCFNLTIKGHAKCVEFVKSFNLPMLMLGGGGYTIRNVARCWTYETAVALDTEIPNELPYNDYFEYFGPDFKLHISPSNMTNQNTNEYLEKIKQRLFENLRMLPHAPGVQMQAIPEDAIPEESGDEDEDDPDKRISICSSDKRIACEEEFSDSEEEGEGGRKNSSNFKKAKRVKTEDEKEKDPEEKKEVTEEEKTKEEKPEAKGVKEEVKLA

Take `O=c1[nH]cccc1O` [3-hydroxypyridine-2-one, reference compound]: at HDAC8 (SAMDI), the “HDAC8 inhibition in words” value is “inactive” and the “HDAC8 inhibition, symbol” value was “NI (No significant Inhibition (below 20% Inhibition))”. Also, at HDAC1, the “HDAC1 inhibition in words” value was “inactive” and the “HDAC1 inhibition, symbol” value was “NI (No significant Inhibition (below 20% Inhibition))”. At HDAC6, the “HDAC6 inhibition in words” value is “inactive” and the “HDAC6 inhibition, symbol” value is reported as “NI (No significant Inhibition (below 20% Inhibition))”.
Regarding `Oc1ccc[nH]c1=S` [3-hydroxypyridine-2-thione, reference compound], the “HDAC8 inhibition in words” value at HDAC8 (SAMDI) is “low micromolar IC50 values”. The IC50 on HDAC8 (Table 14, read-out: HDAC 8 (nm)) was found to be 3680 ± 1200 nM. In addition, on HDAC1, the “HDAC1 inhibition in words” value was “inactive” and the “HDAC1 inhibition, symbol” value is recorded as “NI (No significant Inhibition (below 20% Inhibition))”. Further, at HDAC6, the “HDAC6 inhibition in words” value is “low micromolar IC50 values” and the IC50 came out at 681 ± 110 nM.
`Cn1cccc(O)c1=O` [Compound 142a, 1-Methyl-3-hydroxypyridine-2-one] gave an inhibition at 10 µM against HDAC8 of 8%. The “HDAC1 inhibition, symbol” value on HDAC1 was “NI (No significant Inhibition (below 20% Inhibition))”. Also, on HDAC6, the “HDAC6 inhibition, symbol” value is “NI (No significant Inhibition (below 20% Inhibition))”.
On HDAC8, `O=c1c(O)cccn1Cc1ccccc1` [Compound 142b, 1-Benzyl-3-hydroxypyridine-2-one] came in with an inhibition at 10 µM of 8%. For the same molecule, at HDAC1, the “HDAC1 inhibition, symbol” value is “NI (No significant Inhibition (below 20% Inhibition))”. Also, the “HDAC6 inhibition, symbol” value at HDAC6 was “NI (No significant Inhibition (below 20% Inhibition))”.
With `O=c1c(O)cccn1Cc1ccc(-c2ccccc2)cc1` [Compound 142c, 1-(1,1′-Biphenylmethyl)-3-hydroxypyridine-2-one], the inhibition at 10 µM against HDAC8 turned out to be 8%. Also, at HDAC1, the “HDAC1 inhibition, symbol” value is reported as “NI (No significant Inhibition (below 20% Inhibition))”. Also, the “HDAC6 inhibition, symbol” value at HDAC6 is on record as “NI (No significant Inhibition (below 20% Inhibition))”.
With `Oc1cccn(Cc2ccccc2)c1=S` [Compound 144b, 1-Benzyl-3-hydroxypyridine-2-thione], the “HDAC8 activity, fold superior compared to 144e” value on HDAC8 (SAMDI) turned out to be 2 fold. In addition, the IC50 on HDAC8 (SAMDI, read-out: HDAC8 IC50) amounted to 1270 ± 200 nM; on HDAC6, 457 ± 27 nM. Moreover, the “HDAC1 inhibition, symbol” value at HDAC1 is “NI (No significant Inhibition (below 20% Inhibition))”.
As to `Oc1cccn(Cc2ccc(-c3ccccc3)cc2)c1=S` [Compound 144c, 1-(1,1′-Biphenylmethyl)-3-hydroxypyridine-2-thione], the IC50 was found to be 4280 ± 1550 nM on HDAC8 (SAMDI, read-out: HDAC8 IC50) and 847 ± 188 nM on HDAC6. In addition, at HDAC1, the “HDAC1 inhibition, symbol” value is on record as “NI (No significant Inhibition (below 20% Inhibition))”.
With `N#Cc1ccc(-c2ccc(Cn3cccc(O)c3=O)cc2)cc1` [Compound 148a], on HDAC8, the inhibition at 10 µM was 16%. The “HDAC1 inhibition, symbol” value on HDAC1 is “NI (No significant Inhibition (below 20% Inhibition))”. Besides, the “HDAC6 inhibition, symbol” value on HDAC6 is “NI (No significant Inhibition (below 20% Inhibition))”.
`N#Cc1cccc(-c2ccc(Cn3cccc(O)c3=O)cc2)c1` [Compound 148b, 1-(3-Cyano-(1,1′-biphenylmethyl))-3-hydroxyoxypyridine-2-one]: at HDAC8, the inhibition at 10 µM is 9%. Besides, the “HDAC1 inhibition, symbol” value at HDAC1 is recorded as “NI (No significant Inhibition (below 20% Inhibition))”. On HDAC6, the “HDAC6 inhibition, symbol” value is on record as “NI (No significant Inhibition (below 20% Inhibition))”.
As for `N#Cc1ccccc1-c1ccc(Cn2cccc(O)c2=O)cc1` [Compound 148c, 1-(2-Cyano-(1,1′-biphenylmethyl))-3-hydroxyoxypyridine-2-one], the inhibition at 10 µM was determined as 9% against HDAC8 and 5% on HDAC6. For the same molecule, at HDAC1, the “HDAC1 inhibition, symbol” value was “NI (No significant Inhibition (below 20% Inhibition))”.
The molecule `Cc1ccc(-c2ccc(Cn3cccc(O)c3=O)cc2)cc1` [Compound 148d, 1-(4-Methyl-(1,1′-biphenylmethyl))-3-hydroxyoxypyridine-2-one] yielded an inhibition at 10 µM on HDAC8 of 25%. On HDAC1, the “HDAC1 inhibition, symbol” value is on record as “NI (No significant Inhibition (below 20% Inhibition))”. Also, at HDAC6, the “HDAC6 inhibition, symbol” value is given as “NI (No significant Inhibition (below 20% Inhibition))”.
Consider `Cc1cccc(-c2ccc(Cn3cccc(O)c3=O)cc2)c1` [Compound 148e, 1-(3-Methyl-(1,1′-biphenylmethyl))-3-hydroxyoxypyridine-2-one], for which the “HDAC8 inhibition, symbol” value on HDAC8 (SAMDI) is listed as “NI (No significant Inhibition (below 20% Inhibition))”. Further, the “HDAC1 inhibition, symbol” value at HDAC1 was “NI (No significant Inhibition (below 20% Inhibition))”. Moreover, the “HDAC6 inhibition, symbol” value at HDAC6 is “NI (No significant Inhibition (below 20% Inhibition))”.
Molecule `Cc1ccccc1-c1ccc(Cn2cccc(O)c2=O)cc1` [Compound 148f, 1-(2-Methyl-(1,1′-biphenylmethyl))-3-hydroxyoxypyridine-2-one] gave an inhibition at 10 µM against HDAC8 of 9%. Besides, on HDAC1, the “HDAC1 inhibition, symbol” value is recorded as “NI (No significant Inhibition (below 20% Inhibition))”. Besides, at HDAC6, the “HDAC6 inhibition, symbol” value was “NI (No significant Inhibition (below 20% Inhibition))”.
For the molecule `CN(C)c1ccc(-c2ccc(Cn3cccc(O)c3=O)cc2)cc1` [Compound 148g, 1-(4-Dimethylamino-(1,1′-biphenylmethyl))-3-hydroxyoxypyridine-2-one], the inhibition at 10 µM amounted to 35% against HDAC8 and 11% at HDAC6. Further, the “HDAC1 inhibition, symbol” value on HDAC1 is given as “NI (No significant Inhibition (below 20% Inhibition))”.
At HDAC8, `CN(C)c1ccc(-c2ccc(Cn3cccc(O)c3=O)cc2)cn1` [Compound 148h] had an inhibition at 10 µM of 37%. The “HDAC1 inhibition, symbol” value on HDAC1 is “NI (No significant Inhibition (below 20% Inhibition))”. Moreover, on HDAC6, the “HDAC6 inhibition, symbol” value is reported as “NI (No significant Inhibition (below 20% Inhibition))”.
As to `O=c1c(O)cccn1Cc1ccc(-c2ccncc2)cc1` [Compound 148i, 1-(4-(Pyridine-4-yl)benzyl)-3-hydroxypyridine-2-one], 10 µM produced 16% inhibition at HDAC8. Further, the “HDAC1 inhibition, symbol” value at HDAC1 was “NI (No significant Inhibition (below 20% Inhibition))”. Moreover, the “HDAC6 inhibition, symbol” value on HDAC6 was “NI (No significant Inhibition (below 20% Inhibition))”.
Take `N#Cc1ccc(-c2ccc(Cn3cccc(O)c3=S)cc2)cc1` [Compound 149a, 1-(4-Cyano-(1,1′-biphenylmethyl))-3-hydroxyoxypyridine-2-thione]: the IC50 on HDAC8 (SAMDI, read-out: HDAC8 IC50) was 2080 ± 459 nM; at HDAC8 (setting [1]) it was ~2000 nM; on HDAC6 it was 957 ± 159 nM. Also, the “HDAC1 inhibition, symbol” value on HDAC1 is given as “NI (No significant Inhibition (below 20% Inhibition))”.
On to `N#Cc1cccc(-c2ccc(Cn3cccc(O)c3=S)cc2)c1` [Compound 149b, 1-(3-Cyano-(1,1′-biphenylmethyl))-3-hydroxyoxypyridine-2-thione], for which the IC50 on HDAC8 (SAMDI, read-out: HDAC8 IC50) is 1700 ± 717 nM; on HDAC8 (setting [1]) it was ~2000 nM. On HDAC1, the “HDAC1 inhibition, symbol” value is on record as “NI (No significant Inhibition (below 20% Inhibition))”. On HDAC6, the inhibition at 10 µM worked out at 44%.
For the molecule `Cc1ccc(-c2ccc(Cn3cccc(O)c3=S)cc2)cc1` [Compound 149d, 1-(4-Methyl-(1,1′-biphenylmethyl))-3-hydroxyoxypyridine-2-thione], the IC50 on HDAC8 (SAMDI, read-out: HDAC8 IC50) amounted to 800 ± 304 nM; at HDAC6, 454 ± 42 nM. In addition, on HDAC1, the “HDAC1 inhibition, symbol” value was “NI (No significant Inhibition (below 20% Inhibition))”.
The like results for `Cc1cccc(-c2ccc(Cn3cccc(O)c3=S)cc2)c1` [Compound 149e, 1-(3-Methyl-(1,1′-biphenylmethyl))-3-hydroxyoxypyridine-2-thione] were, in that order, 2500 ± 1180 nM, 812 ± 286 nM and “NI (No significant Inhibition (below 20% Inhibition))”.
On HDAC8, `CN(C)c1ccc(-c2ccc(Cn3cccc(O)c3=S)cc2)cn1` [Compound 149h] displayed an inhibition at 10 µM of 34%. Moreover, on HDAC1, the “HDAC1 inhibition, symbol” value is recorded as “NI (No significant Inhibition (below 20% Inhibition))”. Also, on HDAC6, the IC50 was found to be 2390 ± 458 nM.
In the case of `Oc1cccn(Cc2ccc(-c3ccncc3)cc2)c1=S` [Compound 149i, 1-(4-(Pyridin-4-yl)benzyl)-3-hydroxypyridine-2-thione], the IC50 on HDAC8 (SAMDI, read-out: HDAC8 IC50) is 2780 ± 323 nM; on HDAC6 it was 2200 ± 355 nM. Also, the “HDAC1 inhibition, symbol” value on HDAC1 is given as “NI (No significant Inhibition (below 20% Inhibition))”.
As to `Oc1cccn(CCCn2cc(-c3ccccc3)nn2)c1=S` [Compound 162b, 1-Phenyltriazolylpropyl-3-hydroxypyridine-2-thione], the inhibition at 10 µM came to 63% against HDAC8 and 27% on HDAC1.
With `Oc1cccn(CCCCCCn2cc(-c3ccccc3)nn2)c1=S` [Compound 162e, 1-Phenyltriazolylhexyl-3-hydroxypyridine-2-thione], the inhibition at 10 µM is 23% at HDAC1 and 22% on HDAC6.
Molecule `Cc1ccccc1-c1cn(CCCCCn2cccc(O)c2=O)nn1` [Compound 166c, 1-(2-Tolyl)triazolylpentyl-3-hydroxypyridine-2-one] displayed an inhibition at 10 µM against HDAC8 of 4%. The “HDAC6 inhibition, symbol” value at HDAC6 was “NI (No significant Inhibition (below 20% Inhibition))”.
Molecule `Cc1ccc(-c2cn(CCCCCn3cccc(O)c3=S)nn2)cc1` [Compound 167a, 1-(4-Tolyl)triazolylpentyl-3-hydroxypyridine-2-thione] had an inhibition at 10 µM against HDAC1 of 31%.
With `Cc1cccc(-c2cn(CCCCCn3cccc(O)c3=S)nn2)c1` [Compound 167b, 1-(3-Tolyl)triazolylpentyl-3-hydroxypyridine-2-thione], the inhibition at 10 µM against HDAC1 was found to be 19%.

Source of the values: patent US8871728B2, “Non-peptide macrocyclic histone deacetylese (HDAC) inhibitors and methods of making and using thereof” (Georgia Tech Research Corporation, priority 2007, dated 2014).
